Source: US7435724B2, “Degradation-resistant mononucleoside phosphate compounds” (Inspire Pharmaceutical, Inc., priority 2002, dated 2008)
pIC50: −log10 of the molar value.

System: whole blood platelet aggregation
Assay: Platelet aggregation assay, whole blood (ADP-induced, impedance mode)
Format: cell-based, human (healthy volunteers)
Settings: Homo sapiens, read-out: PLATELET DATA IC50 Whole Blood, inhibition of aggregation by maximally effective ADP, whole blood diluted 1:1 with saline
Method: Blood was collected from healthy volunteers into syringes containing ⅙final blood volume of anti-coagulant ACD (65 mM citric acid, 85 mM sodium citrate, 110 mM dextrose) for washed platelet (WP) preparation or into a syringe containing a final concentration of 10 units/mL heparin or 300 μM PPACK for whole blood (WB) assays. The blood collected for whole blood assays was maintained at room temperature and immediately tested as described below. The blood collected for WP) was centrifuged at 180 g for 15 minutes and the supernatant (platelet rich plasma) was removed. […] Platelet aggregation was measured using the optical mode of a ChronoLog aggregometer (Havertown, Pa.). […] A maximally effective concentration of ADP (typically a concentration that produces between 90 and 100 percent of the maximal response) was added to the sample and aggregation was monitored for 8 minutes. […]
The potency of agonists and inhibitors of platelet aggregation was calculated from both, the rate of aggregation and the maximal extent of aggregation obtained for each determination by fitting the data to a four-parameter logistic equation using the GraphPad software package (GraphPad Corp. San Diego, Calif.).

## CCNC(=O)Nc1ncnc2c1ncn2[C@@H]1O[C@H](COP(=O)(O)OC)C2O[C@H](/C=C/c3ccccc3)O[C@@H]21 (stereo partly drawn) [Compound 217, 2′,3′-(trans)-O-methylenestyryl-5′-(methylphosphate)-N^6-ethylaminocarbonyl-adenosine]
  pIC50: 5.60
